One series concerns EP1 receptors. Conditions: guinea pig ileum, dog fundus, cat trachea, chick ileum; cited from earlier work.

In the case of `CC(=O)NNC(=O)N1Cc2ccccc2Oc2ccc(Cl)cc21` [SC-19220], the “block of the effect of PGE2 on tissues” value in the series with EP1 receptors is recorded as “blocks the effect of PGE2 on some tissues such as guinea pig ileum or dog fundus but not on other tissues such as the cat trachea or chick ileum”. The term melting point denotes the temperature, or range, at which the solid turns liquid. Compound `CCN(Cc1cc(Br)ccc1OCC1CC1)c1ccc(C(=O)O)nn1` [Example 3, 6-[N-(5-Bromo-2-(cyclopropylmethoxy)benzyl)-N-ethylamino]pyridazine-3-carboxylic acid] gave a melting point of 73 to 80 °C. As for `CCN(Cc1cc(Cl)ccc1OCC1CC1)c1ccc(C(N)=O)nn1` [Example 21, 6-[N-(5-Chloro-2-(cyclopropylmethoxy)benzyl)-N-ethylamino]pyridazine-3-carboxamide], the melting point lay in the range of 177 to 178 °C. In turn, `CCCOc1ccc(Br)cc1CN(CC)c1ccc(C(=O)O)nn1` [Example 18, 6-(N-[5-Bromo-2-propoxybenzyl]-N-ethylamino)pyridazine-3-carboxylic acid] came in with a melting point of 135 to 137 °C. The compound `CCN(Cc1cc(Cl)ccc1OCC1CC1)c1ccc(C(=O)O)nn1` [Example 22, 6-[N-(5-Chloro-2-(cyclopropylmethoxy)benzyl)-N-ethylamino]pyridazine-3-carboxylic acid] yielded a melting point of 119 to 120 °C. Turning to `CCN(Cc1cc(Cl)ccc1OCC1CC1)c1ccc(-c2nnn[nH]2)nn1` [Example 23, 5-[6-(N-[5-Chloro-2-cyclopropylmethoxybenzyl]-N-ethylamino)pyridazin-3-yl]tetrazole], the melting point lay within 190 to 192 °C.

The record behind these values is patent US6365603B1, “Aromatic compounds and pharmaceutical compositions containing them” (Zeneca Ltd., priority 1995, dated 2002).
